From patent publication EP0370656A1, “Treatment of myelosuppression associated with acquired immune deficiency” (SCHERING CORPORATION, priority 1988, dated 1990)
Read-outs that look alike come from different tables or passages of the source.

Experiments:
[1] = system: white blood cell (WBC) count; conditions: for WBC (per cm³): GM-CSF 0 µg/kg
Source text: A person was diagnosed as having AIDS and CMV retinitis. […]

[2] = system: cytomegalovirus retinitis; conditions: intravenous, 7.5 to 15 mg per kilogram per day; patients with cytomegalovirus retinitis; cited from earlier work

## Nc1nc(O)c2ncn(COC(CO)CO)c2n1 [DHPG, 9-(1,3-dihydroxy-2-propoxymethyl) guanine]
[1]; Example 1, person, Day 0, % dose of DHPG changed to 50
  WBC (per cm³): 1000 per cm³
[1]; Example 1, DHPG commenced at Day 0
  result of DHPG treatment (adverse effect): life threatening myelosuppression
[1]; Example 1, Day 29, % dose of DHPG changed to 50
  WBC (per cm³): 700 per cm³
[1]; Example 1, Day 34, % dose of DHPG changed to 0
  WBC (per cm³): 300 per cm³
[1]; Example 1, Day 49 (DHPG at 0 % since Day 34), % dose of DHPG changed to 100
  WBC (per cm³): 1900 per cm³
[1]; Example 1, Day 52, % dose of DHPG changed to 50
  WBC (per cm³): 700 per cm³
[2]
  major adverse effect of DHPG therapy: dose related myelosuppression, especially neutropenia
